Laboratory results as given in patent US12102648B2, “Orally-bioavailable nucleoside analogs” (priority 2021, dated 2024).
Where two headings read alike, the source gives them in different places.

Experiment: in vitro
Format: in vitro ADME
Details: human
Outline: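 Caco-2 monolayers cultured 19 days on inserts (TEER >600 […]); bidirectional A-to-B and B-to-A transport at 37° C over 90 min, samples quantified by LC/MS/MS. Papp, efflux ratio and recovery calculated; ER >2 flags potential efflux substrates.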

[1] = Caco-2 monolayer, apical to basolateral, 90-minute incubation, read-out: Papp, A-B
[2] = Caco-2 monolayer, basolateral to apical, 90-minute incubation, read-out: Papp, B-A
[3] = Caco-2 monolayer, ER>2 indicates potential efflux transporter substrate, read-out: ER (efflux ratio)

SMILES | Papp A→B at 90 min (Caco-2) [×10⁻⁶ cm/s] | Papp B→A at 90 min (Caco-2) [×10⁻⁶ cm/s] | efflux ratio at 90 min (Caco-2) | Papp A→B at 90 min [1] [×10⁻⁶ cm/s] | Papp B→A at 90 min [2] [×10⁻⁶ cm/s] | efflux ratio at 90 min [3]
CNc1nc(N)nc2c1ncn2[C@@H]1O[C@H](COC(=O)C(C)C)[C@@H](OC(=O)C(C)C)[C@@]1(C)F [Compound 227, (2R,3R,4R,5R)-5-(2-amino-6-(methylamino)-9H-purin-9-yl)-4-fluoro-2-((isobutyryloxy)methyl)-4-methyltetrahydrofuran-3-yl isobutyrate] | 8.5 | 3.2 | 0.4 |  |  | 
N#C[C@@]1(c2ccc3c(NC(=O)[C@@H](N)Cc4ccc(F)cc4)ncnn23)O[C@H](CO)[C@@H](OC(=O)CC2CCCCC2)[C@H]1O [Compound 137, (2R,3S,4R,5R)-5-(4-((S)-2-amino-3-(4-fluorophenyl)propanamido)pyrrolo[2,1-f][1,2,4]triazin-7-yl)-5-cyano-4-hydroxy-2-(hydroxymethyl)tetrahydrofuran-3-yl 2-cyclohexylacetate] | 0.6 | 2.7 | 4.5 |  |  | 
CCCC(=O)Nc1ncnn2c([C@]3(C#N)O[C@H](COC(=O)[C@@H](N)C(C)C)[C@@H](OC(=O)CC)[C@H]3O)ccc12 [Compound 357, ((2R,3S,4R,5R)-5-(4-butyramidopyrrolo[2,1-f][1,2,4]triazin-7-yl)-5-cyano-4-hydroxy-3-(propionyloxy)tetrahydrofuran-2-yl)methyl L-valinate] | 3.1 | 6 | 1.9 |  |  | 
N#C[C@@]1(c2ccc3c(NC(=O)[C@@H](N)Cc4ccc(F)cc4)ncnn23)O[C@H](COC(=O)CC2CCCCC2)[C@@H](O)[C@H]1O [Compound 96, ((2R,3S,4R,5R)-5-(4-((S)-2-amino-3-(4-fluorophenyl)propanamido)pyrrolo[2,1-f][1,2,4]triazin-7-yl)-5-cyano-3,4-dihydroxytetrahydrofuran-2-yl)methyl 2-cyclohexylacetate] | 0.45 | 5.2 | 12 |  |  | 
N#C[C@@]1(c2ccc3c(N)ncnn23)O[C@H](COC(=O)CC23CC4CC(CC(C4)C2)C3)[C@@H](O)[C@H]1O [Compound 263, ((2R,3S,4R,5R)-5-(4-aminopyrrolo[2,1-f][1,2,4]triazin-7-yl)-5-cyano-3,4-dihydroxytetrahydrofuran-2-yl)methyl 2-((3R,5R,7R)-adamantan-1-yl)acetate] | 13 | 19 | 1.5 |  |  | 
N#C[C@@]1(c2ccc3c(NC(=O)[C@@H](N)Cc4ccc(F)cc4)ncnn23)O[C@H](CO)[C@@H](OC(=O)CC2(N)CCCCC2)[C@H]1O [Compound 345, (2R,3S,4R,5R)-5-(4-((S)-2-amino-3-(4-fluorophenyl)propanamido)pyrrolo[2,1-f][1,2,4]triazin-7-yl)-5-cyano-4-hydroxy-2-(hydroxymethyl)tetrahydrofuran-3-yl 2-(1-aminocyclohexyl)acetate] | 0.09 | 3.9 | 43 |  |  | 
CCCCCOC(=O)Nc1ncnn2c([C@]3(C#N)O[C@H](CO)[C@@H](OC(=O)Cc4ccccc4)[C@H]3O)ccc12 [Compound 141, (2R,3S,4R,5R)-5-cyano-4-hydroxy-2-(hydroxymethyl)-5-(4-(((pentyloxy)carbonyl)amino)pyrrolo[2,1-f][1,2,4]triazin-7-yl)tetrahydrofuran-3-yl 2-phenylacetate] |  |  |  | 0.14 | 0.04 | 0.33
CCCCCOC(=O)Nc1ncnn2c([C@]3(C#N)O[C@H](COC(=O)CC)[C@@H](O)[C@H]3O)ccc12 [Compound 91, ((2R,3S,4R,5R)-5-cyano-3,4-dihydroxy-5-(4-(((pentyloxy)carbonyl)amino)pyrrolo[2,1-f][1,2,4]triazin-7-yl)tetrahydrofuran-2-yl)methyl propionate] |  |  |  | 1.9 | 4.1 | 2.1
CCCCC(=O)Nc1ncnn2c([C@]3(C#N)O[C@H](COC(=O)Cc4ccccc4)[C@@H](O)[C@H]3O)ccc12 [Compound 277, ((2R,3S,4R,5R)-5-cyano-3,4-dihydroxy-5-(4-pentanamidopyrrolo[2,1-f][1,2,4]triazin-7-yl)tetrahydrofuran-2-yl)methyl 2-phenylacetate] |  |  |  | 0.47 | 5.4 | 12
N#C[C@@]1(c2ccc3c(N)ncnn23)O[C@H](COC(=O)CC2CCCC2)[C@@H](O)[C@H]1O [Compound 259, ((2R,3S,4R,5R)-5-(4-aminopyrrolo[2,1-f][1,2,4]triazin-7-yl)-5-cyano-3,4-dihydroxytetrahydrofuran-2-yl)methyl 2-cyclopentylacetate] | 2 | 0.6 | 0.3 |  |  | 
CCC(=O)OC[C@H]1O[C@@](C#N)(c2ccc3c(NC(=O)[C@@H](N)C(C)C)ncnn23)[C@H](O)[C@@H]1O [Compound 115, ((2R,3S,4R,5R)-5-(4-((S)-2-amino-3-methylbutanamido)pyrrolo[2,1-f][1,2,4]triazin-7-yl)-5-cyano-3,4-dihydroxytetrahydrofuran-2-yl)methyl propionate] | 0.04 | 1.7 | 47 |  |  | 
CCC(=O)O[C@H]1[C@@H](O)[C@](C#N)(c2ccc3c(NC(=O)OCOC(=O)C(C)(C)C)ncnn23)O[C@@H]1COC(=O)[C@@H](N)C(C)C [Compound 365, ((2R,3S,4R,5R)-5-cyano-4-hydroxy-5-(4-((((pivaloyloxy)methoxy)carbonyl)amino)pyrrolo[2,1-f][1,2,4]triazin-7-yl)-3-(propionyloxy)tetrahydrofuran-2-yl)methyl L-valinate] | 1.5 | 4.1 | 2.8 |  |  | 
CNc1nc(N)nc2c1ncn2[C@@H]1O[C@H](COC(C)=O)[C@@H](OC(=O)CC2CCCCC2)[C@@]1(C)F [Compound 194, (2R,3R,4R,5R)-2-(acetoxymethyl)-5-(2-amino-6-(methylamino)-9H-purin-9-yl)-4-fluoro-4-methyltetrahydrofuran-3-yl 2-cyclohexylacetate] | 12 | 2.1 | 0.18 |  |  | 
CC(C)[C@H](N)C(=O)O[C@H]1[C@@H](O)[C@](C#N)(c2ccc3c(NC(=O)c4ccccc4)ncnn23)O[C@@H]1CO [Compound 128, (2R,3S,4R,5R)-5-(4-benzamidopyrrolo[2,1-f][1,2,4]triazin-7-yl)-5-cyano-4-hydroxy-2-(hydroxymethyl)tetrahydrofuran-3-yl L-valinate] | 0.3 | 6.4 | 22 |  |  | 
N#C[C@@]1(c2ccc3c(N)ncnn23)O[C@H](COC(=O)CC2CCC(F)(F)CC2)[C@@H](O)[C@H]1O [Compound 262, ((2R,3S,4R,5R)-5-(4-aminopyrrolo[2,1-f][1,2,4]triazin-7-yl)-5-cyano-3,4-dihydroxytetrahydrofuran-2-yl)methyl 2-(4,4-difluorocyclohexyl)acetate] | 0.91 | 4.4 | 4.8 |  |  | 
CC(C)CC(=O)OC[C@H]1O[C@@](C#N)(c2ccc3c(N)ncnn23)[C@H](O)[C@@H]1OC(=O)Cc1ccccc1 [Compound 20, ((2R,3S,4R,5R)-5-(4-aminopyrrolo[2,1-f][1,2,4]triazin-7-yl)-5-cyano-4-hydroxy-3-(2-phenylacetoxy)tetrahydrofuran-2-yl)methyl 3-methylbutanoate] |  |  |  | 10 | 9.8 | 1
